In ChEMBL document CHEMBL3784917, “Recent Progress in Histone Demethylase Inhibitors” (J Med Chem, 2016):

Columns and labels:
[1] = target: Lysine-specific demethylase 5C (Homo sapiens, UniProt P41229); test: Inhibition of KDM5C (unknown origin) after 24 hrs by alphascreen assay
Egl nine homolog 1 = Egl nine homolog 1 (Homo sapiens, UniProt Q9GZT9); test: Inhibition of PHD2 catalytic domain (unknown origin) after 24 hrs by alphascreen assay
Egl nine homolog 1, sequence (Q9GZT9 whole entry, the tested form may be a part): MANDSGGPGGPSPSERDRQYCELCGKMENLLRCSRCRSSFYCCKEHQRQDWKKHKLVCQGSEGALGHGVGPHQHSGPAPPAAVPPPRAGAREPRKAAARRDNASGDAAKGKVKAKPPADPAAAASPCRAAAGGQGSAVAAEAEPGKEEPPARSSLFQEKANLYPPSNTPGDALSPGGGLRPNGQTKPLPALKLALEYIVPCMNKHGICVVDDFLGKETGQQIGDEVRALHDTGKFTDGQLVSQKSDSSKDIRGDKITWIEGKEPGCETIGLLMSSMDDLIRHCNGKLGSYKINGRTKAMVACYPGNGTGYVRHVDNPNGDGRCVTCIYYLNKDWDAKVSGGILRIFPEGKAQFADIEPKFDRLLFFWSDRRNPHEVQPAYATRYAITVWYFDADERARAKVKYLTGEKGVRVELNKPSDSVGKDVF

Lysine-specific demethylase 5C, sequence (P41229 whole entry, the tested form may be a part): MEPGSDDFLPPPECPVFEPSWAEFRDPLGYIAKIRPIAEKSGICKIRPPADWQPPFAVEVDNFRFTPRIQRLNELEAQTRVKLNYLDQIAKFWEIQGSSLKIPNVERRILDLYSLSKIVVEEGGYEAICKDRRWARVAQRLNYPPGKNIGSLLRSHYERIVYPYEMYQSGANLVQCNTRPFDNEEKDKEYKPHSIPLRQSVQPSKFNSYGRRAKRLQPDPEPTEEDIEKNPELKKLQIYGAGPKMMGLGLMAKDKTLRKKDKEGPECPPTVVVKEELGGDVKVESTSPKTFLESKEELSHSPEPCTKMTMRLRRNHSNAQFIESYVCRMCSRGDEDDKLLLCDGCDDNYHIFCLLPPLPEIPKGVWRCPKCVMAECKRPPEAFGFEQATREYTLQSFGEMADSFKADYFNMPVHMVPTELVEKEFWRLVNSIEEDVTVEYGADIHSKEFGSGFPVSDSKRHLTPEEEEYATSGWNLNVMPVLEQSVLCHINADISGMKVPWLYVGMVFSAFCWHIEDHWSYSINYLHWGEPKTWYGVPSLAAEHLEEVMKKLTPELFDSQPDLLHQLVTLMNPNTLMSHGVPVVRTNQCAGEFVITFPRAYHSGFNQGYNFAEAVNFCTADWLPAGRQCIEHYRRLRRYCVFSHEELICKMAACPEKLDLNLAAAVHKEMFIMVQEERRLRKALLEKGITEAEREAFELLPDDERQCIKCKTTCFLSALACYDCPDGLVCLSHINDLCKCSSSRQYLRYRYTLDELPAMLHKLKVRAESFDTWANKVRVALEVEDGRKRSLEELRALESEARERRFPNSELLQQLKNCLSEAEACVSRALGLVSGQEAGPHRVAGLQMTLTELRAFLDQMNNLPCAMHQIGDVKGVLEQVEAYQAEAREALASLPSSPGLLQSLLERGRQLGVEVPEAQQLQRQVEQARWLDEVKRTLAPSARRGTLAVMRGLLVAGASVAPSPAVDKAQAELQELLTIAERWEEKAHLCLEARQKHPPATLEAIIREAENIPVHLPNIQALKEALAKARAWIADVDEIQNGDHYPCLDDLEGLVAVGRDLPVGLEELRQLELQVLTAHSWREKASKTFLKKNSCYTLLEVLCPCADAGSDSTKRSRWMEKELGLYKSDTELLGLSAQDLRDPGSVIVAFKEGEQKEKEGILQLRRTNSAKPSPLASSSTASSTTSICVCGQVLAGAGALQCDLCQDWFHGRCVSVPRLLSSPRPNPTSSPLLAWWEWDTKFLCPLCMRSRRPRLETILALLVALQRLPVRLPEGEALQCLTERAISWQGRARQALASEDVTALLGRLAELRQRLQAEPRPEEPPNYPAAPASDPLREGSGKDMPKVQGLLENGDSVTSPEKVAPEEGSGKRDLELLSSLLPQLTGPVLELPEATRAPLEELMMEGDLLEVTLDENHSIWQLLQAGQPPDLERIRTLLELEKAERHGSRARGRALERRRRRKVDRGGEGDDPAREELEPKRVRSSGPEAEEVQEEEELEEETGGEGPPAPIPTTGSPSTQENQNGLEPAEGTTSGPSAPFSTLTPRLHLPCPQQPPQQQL

- IC50 [1]: > 100 µM
- IC50 (Egl nine homolog 1): > 100 µM
SMILES: CCCCCCCCOC(=O)c1ccc(O)c2ncccc12
